Laboratory results taken from US8969861B2, “Method of manufacturing organic electroluminescence display device” (Canon Kabushiki Kaisha, priority 2012, dated 2015).

Columns and labels:
Format in all cases: physicochemical
[1] = Etching (dissolution) rate of deposited layers in IPA/water mixed solvent; conditions: IPA 60 wt %; for etching rate of the layer: identical etching conditions
Text: In the present invention, a larger etching rate means a higher dissolution rate. In addition, a larger etching rate means a higher solubility of a layer having a material of interest in the solvent (polar solvent). FIG. 3 is a graph showing thickness changes in the compound 1 and the compound A2 over an etching time. […] On the other hand, the thickness of a layer (layer B) formed of the compound A2 as a heterocyclic compound reduces over time. When the etching rates of the respective layers are calculated with their etching conditions made identical to each other, the etching rate of the layer A is 0.008 nm/sec but the etching rate of the layer B is 0.87 nm/sec, that is, a ratio of the latter to the former is about 100.

[2] = Solubility in IPA/water mixed solvent (FIG. 4); conditions: IPA concentration of 80 wt %
Text: The solubility of a compound as a constituent material for each layer in the IPA/water mixed solvent varies depending on the weight ratio of IPA in the mixed solvent. FIG. 4 is a graph showing the solubilities of the compound 1 (fused polycyclic hydrocarbon compound) and the compound A2 (heterocyclic compound) in the IPA/water mixed solvent (polar solvent). Here, in the graph of FIG. 4, the axis of abscissa indicates the weight percent concentration of IPA in the IPA/water mixed solvent, and the axis of ordinate indicates the amount of the fused polycyclic hydrocarbon compound or heterocyclic compound to dissolve in 1 g of the solvent.

[3] = Etching of sacrificial layer by spin washing method (FIG. 6); conditions: 60-wt % aqueous solution of IPA; thickness by spectroscopic ellipsometer
Text: The spin washing method involves first dropping a polar solvent 81 onto the sacrificial layer 30 (FIG. 5B), holding the resultant for a predetermined time period (FIG. 5C), then rotating the substrate 10 to splash the polar solvent 81, and drying the substrate 10 by means of the rotation (FIG. 5D). The spin washing method in which the process illustrated in FIGS. 5A to 5D is defined as one cycle is typically repeated a plurality of times. It is to be noted that the polar solvents 81 to be used in the cycle to be performed a plurality of times may be the same every time, or mixed solvents having different compositional ratios may be used in part of the times or every time.
(§1) FIG. 6 is a graph showing a relationship between the total time of etching by the spin washing method and the thickness of the sacrificial layer formed of the compound A2. It is to be noted that in the graph of FIG. 6, the compound A2 is used as a constituent material for the sacrificial layer 30 and a 60-wt % aqueous solution of IPA is used as a polar solvent. […] The thickness of the sacrificial layer was measured with a spectroscopic ellipsometer (HORIBA). […] Although the graph shown in FIG. 6 is merely a specific example, the number of repetition of the process based on the spin washing method can be decided by utilizing the quantitative tendency of the sacrificial layer 30 to reduce shown in FIG. 6.

[4] = Etching of sacrificial layer by dipping method (FIG. 9); conditions: 60-wt % aqueous solution of IPA; thickness by spectroscopic ellipsometer
Text: The dipping method is a method involving loading the substrate 10 in a container storing the polar solvent, dipping the substrate 10 in the polar solvent for a certain time period, and then taking the substrate 10 out of the container. Upon dipping of the substrate 10 in the polar solvent, (at least part of) the sacrificial layer 30 is eluted. At this time, when the concentration of the water-soluble polymer material constituting the intermediate layer 40, which can be dissolved together with the sacrificial layer 30, in the polar solvent is low, the polar solvent can be reused as the polar solvent to be used in first dipping.
The dipping method is performed by, for example, a method to be described below. […]
as §1, with “9” for “6”, “dipping” for “spin washing”, “A2.” for “A2. It is to be noted that in the graph of FIG. 6, the compound A2 is used as a constituent material for the sacrificial layer 30 and a 60-wt % aqueous solution of IPA is used as a polar solvent.”, “9. […]” for “6.”

Row | ratio of etching rate of layer B (compound A2) to layer A (compound 1) [1] | rate at which the sacrificial layer is etched by one spin washing [3] | rate at which the sacrificial layer was etched by the dipping method [4] [nm/time] | SMILES | etching rate of the layer [1] [nm/s] | amount dissolving in 1 g of the IPA/water mixed solvent [2] [µg]
1 | – | – | – | CC1(C)c2cc(-c3ccc4ccc5cccc6ccc3c4c56)ccc2-c2ccc(-c3ccc4ccc5cccc6ccc3c4c56)cc21 [compound 1] | 0.008 | 5
2 | about 100 | about 6.7 nm | 3.7 | CC1(C)c2ccccc2-c2ccc(-c3ccc4ccc5ccc(-c6ccc7c(c6)C(C)(C)c6ccccc6-7)nc5c4n3)cc21 [compound A2] | 0.87 | 73
